Source: ChEMBL document CHEMBL5058649, “Data for DCP probe BAY 1816032” (2022)
Calls of active or inactive are those of the source. The calls are words filed in the database; no cut-off is given here.

Key:
[1] = target: 5-hydroxytryptamine receptor 2C (Homo sapiens) (UniProt P28335); settings: Compound concentration 10.0 uM
[2] = target: Serine/threonine-protein kinase 38-like (Homo sapiens) (UniProt Q9Y2H1); assay: NDR2 DiscoveRx kinase panel; settings: Compound concentration 1.0 uM
[3] = target: Muscarinic acetylcholine receptor M4 (Homo sapiens) (UniProt P08173); settings: Compound concentration 10.0 uM
[4] = target: T1, Mitotic checkpoint serine/threonine-protein kinase BUB1 (Homo sapiens, UniProt O43683); assay: BUB1 biochemical assay (high ATP)
[5] = target: Serine/threonine-protein kinase DCLK1 (Homo sapiens) (UniProt O15075); assay: DCAMKL1 DiscoveRx kinase panel; settings: Compound concentration 1.0 uM
[6] = target: Protein kinase C delta type (Homo sapiens) (UniProt Q05655); assay: PRKCD DiscoveRx kinase panel; settings: Compound concentration 1.0 uM
[7] = target: D(2) dopamine receptor (Homo sapiens) (UniProt P14416); settings: Compound concentration 10.0 uM
[8] = target: Ribosomal protein S6 kinase alpha-5 (Homo sapiens) (UniProt O75582); assay: RPS6KA5(Kin.Dom.2-C-terminal) DiscoveRx kinase panel; settings: Compound concentration 1.0 uM
[9] = target: SNF-related serine/threonine-protein kinase (Homo sapiens) (UniProt Q9NRH2); assay: SNRK DiscoveRx kinase panel; settings: Compound concentration 1.0 uM
[10] = target: 5-hydroxytryptamine receptor 7 (Homo sapiens, UniProt P34969); assay: GPCRScan assay: inhibition of 5-HT7A; design: radioligand conc. used [nm] 5.0 – 6.0, parental cells Stable HEK
[11] = target: Serine/threonine-protein kinase PLK3 (Homo sapiens) (UniProt Q9H4B4); assay: PLK3 DiscoveRx kinase panel; settings: Compound concentration 1.0 uM
[12] = target: Calcium/calmodulin-dependent protein kinase kinase 1 (Homo sapiens) (UniProt Q8N5S9); assay: CAMKK1 DiscoveRx kinase panel; settings: Compound concentration 1.0 uM
[13] = target: Ribosomal protein S6 kinase alpha-5 (Homo sapiens) (UniProt O75582); assay: RPS6KA5(Kin.Dom.1-N-terminal) DiscoveRx kinase panel; settings: Compound concentration 1.0 uM
[14] = target: Tyrosine-protein kinase JAK1 (Homo sapiens) (UniProt P23458); assay: JAK1(JH2domain-pseudokinase) DiscoveRx kinase panel; settings: Compound concentration 1.0 uM
[15] = target: Cannabinoid receptor 1 (Homo sapiens) (UniProt P21554); settings: Compound concentration 10.0 uM
[16] = target: Ribosomal protein S6 kinase alpha-3 (Homo sapiens) (UniProt P51812); assay: RSK2(Kin.Dom.1-N-terminal) DiscoveRx kinase panel; settings: Compound concentration 1.0 uM
[17] = HeLa-MaTu-ADR cell line Proliferation assay; format: functional, Homo sapiens; settings: time 4 day
[18] = target: Fibroblast growth factor receptor 3 (Homo sapiens) (UniProt P22607); assay: FGFR3 DiscoveRx kinase panel; settings: Compound concentration 1.0 uM
[19] = target: Phosphatidylinositol 3-kinase C2 domain-containing subunit gamma (Homo sapiens) (UniProt O75747); assay: PIK3C2G DiscoveRx kinase panel; settings: Compound concentration 1.0 uM
[20] = target: Serine/threonine-protein kinase 38 (Homo sapiens) (UniProt Q15208); assay: NDR1 DiscoveRx kinase panel; settings: Compound concentration 1.0 uM
[21] = target: Serine/threonine-protein kinase Nek7 (Homo sapiens) (UniProt Q8TDX7); assay: NEK7 DiscoveRx kinase panel; settings: Compound concentration 1.0 uM
[22] = target: Serine/threonine-protein kinase LATS1 (Homo sapiens) (UniProt O95835); assay: LATS1 DiscoveRx kinase panel; settings: Compound concentration 1.0 uM
[23] = target: Receptor tyrosine-protein kinase erbB-2 (Homo sapiens) (UniProt P04626); assay: ERBB2 DiscoveRx kinase panel; settings: Compound concentration 1.0 uM
[24] = target: Casein kinase I isoform gamma-2 (Homo sapiens) (UniProt P78368); assay: CSNK1G2 DiscoveRx kinase panel; settings: Compound concentration 1.0 uM
[25] = target: Serine/threonine-protein kinase PAK 6 (Homo sapiens) (UniProt Q9NQU5); assay: PAK6 DiscoveRx kinase panel; settings: Compound concentration 1.0 uM
[26] = target: Phosphatidylinositol 5-phosphate 4-kinase type-2 gamma (Homo sapiens) (UniProt Q8TBX8); assay: PIP5K2C DiscoveRx kinase panel; settings: Compound concentration 1.0 uM
[27] = target: Peripheral plasma membrane protein CASK (Homo sapiens) (UniProt O14936); assay: CASK DiscoveRx kinase panel; settings: Compound concentration 1.0 uM
[28] = target: Cyclin-G-associated kinase (Homo sapiens) (UniProt O14976); assay: GAK DiscoveRx kinase panel; settings: Compound concentration 1.0 uM
[29] = target: Serine/threonine-protein kinase pim-3 (Homo sapiens) (UniProt Q86V86); assay: PIM3 DiscoveRx kinase panel; settings: Compound concentration 1.0 uM
[30] = target: Sodium-dependent noradrenaline transporter (Homo sapiens, UniProt P23975); settings: Compound concentration 10.0 uM
[31] = target: T2, Alpha-2A adrenergic receptor (Homo sapiens) (UniProt P08913); settings: Compound concentration 10.0 uM
T2 sequence (whole entry): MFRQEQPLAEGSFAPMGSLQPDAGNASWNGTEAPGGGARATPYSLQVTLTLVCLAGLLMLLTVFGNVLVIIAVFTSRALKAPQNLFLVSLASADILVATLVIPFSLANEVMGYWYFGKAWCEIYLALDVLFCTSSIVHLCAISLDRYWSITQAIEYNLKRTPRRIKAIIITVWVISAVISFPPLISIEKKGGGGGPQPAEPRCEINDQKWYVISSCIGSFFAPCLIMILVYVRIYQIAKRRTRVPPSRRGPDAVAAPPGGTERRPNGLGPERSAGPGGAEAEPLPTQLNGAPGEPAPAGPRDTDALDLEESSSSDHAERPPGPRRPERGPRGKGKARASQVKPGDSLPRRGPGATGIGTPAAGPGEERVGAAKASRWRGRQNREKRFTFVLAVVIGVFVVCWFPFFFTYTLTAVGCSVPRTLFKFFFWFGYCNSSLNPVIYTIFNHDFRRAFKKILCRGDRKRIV

[32] = target: Uncharacterized serine/threonine-protein kinase SBK3 (Homo sapiens) (UniProt P0C264); assay: SgK110 DiscoveRx kinase panel; settings: Compound concentration 1.0 uM
[33] = target: Dual specificity mitogen-activated protein kinase kinase 2 (Homo sapiens) (UniProt P36507); assay: MEK2 DiscoveRx kinase panel; settings: Compound concentration 1.0 uM
[34] = target: MAP kinase-activated protein kinase 2 (Homo sapiens) (UniProt P49137); assay: MAPKAPK2 DiscoveRx kinase panel; settings: Compound concentration 1.0 uM
[35] = target: 5-hydroxytryptamine receptor 1D (Homo sapiens, UniProt P28221); settings: Compound concentration 10.0 uM
[36] = target: T2, Alpha-2A adrenergic receptor (Homo sapiens); settings: Compound concentration 10.0 uM; remark: listed apart in the source
[37] = target: Ephrin type-B receptor 4 (Homo sapiens) (UniProt P54760); assay: EPHB4 DiscoveRx kinase panel; settings: Compound concentration 1.0 uM
[38] = target: Cyclin-dependent kinase 17 (Homo sapiens) (UniProt Q00537); assay: PCTK2 DiscoveRx kinase panel; settings: Compound concentration 1.0 uM
[39] = target: Activin receptor type-2A (Homo sapiens) (UniProt P27037); assay: ACVR2A DiscoveRx kinase panel; settings: Compound concentration 1.0 uM
[40] = target: T1, Mitotic checkpoint serine/threonine-protein kinase BUB1; assay: BUB1 surface plasmon resonance (SPR) assay
[41] = target: Hormonally up-regulated neu tumor-associated kinase (Homo sapiens) (UniProt P57058); assay: HUNK DiscoveRx kinase panel; settings: Compound concentration 1.0 uM
[42] = target: 5-hydroxytryptamine receptor 5A (Homo sapiens) (UniProt P47898); settings: Compound concentration 10.0 uM
[43] = target: Serine/threonine-protein kinase NIM1 (Homo sapiens) (UniProt Q8IY84); assay: NIM1 DiscoveRx kinase panel; settings: Compound concentration 1.0 uM

T1 sequence (O43683 whole entry): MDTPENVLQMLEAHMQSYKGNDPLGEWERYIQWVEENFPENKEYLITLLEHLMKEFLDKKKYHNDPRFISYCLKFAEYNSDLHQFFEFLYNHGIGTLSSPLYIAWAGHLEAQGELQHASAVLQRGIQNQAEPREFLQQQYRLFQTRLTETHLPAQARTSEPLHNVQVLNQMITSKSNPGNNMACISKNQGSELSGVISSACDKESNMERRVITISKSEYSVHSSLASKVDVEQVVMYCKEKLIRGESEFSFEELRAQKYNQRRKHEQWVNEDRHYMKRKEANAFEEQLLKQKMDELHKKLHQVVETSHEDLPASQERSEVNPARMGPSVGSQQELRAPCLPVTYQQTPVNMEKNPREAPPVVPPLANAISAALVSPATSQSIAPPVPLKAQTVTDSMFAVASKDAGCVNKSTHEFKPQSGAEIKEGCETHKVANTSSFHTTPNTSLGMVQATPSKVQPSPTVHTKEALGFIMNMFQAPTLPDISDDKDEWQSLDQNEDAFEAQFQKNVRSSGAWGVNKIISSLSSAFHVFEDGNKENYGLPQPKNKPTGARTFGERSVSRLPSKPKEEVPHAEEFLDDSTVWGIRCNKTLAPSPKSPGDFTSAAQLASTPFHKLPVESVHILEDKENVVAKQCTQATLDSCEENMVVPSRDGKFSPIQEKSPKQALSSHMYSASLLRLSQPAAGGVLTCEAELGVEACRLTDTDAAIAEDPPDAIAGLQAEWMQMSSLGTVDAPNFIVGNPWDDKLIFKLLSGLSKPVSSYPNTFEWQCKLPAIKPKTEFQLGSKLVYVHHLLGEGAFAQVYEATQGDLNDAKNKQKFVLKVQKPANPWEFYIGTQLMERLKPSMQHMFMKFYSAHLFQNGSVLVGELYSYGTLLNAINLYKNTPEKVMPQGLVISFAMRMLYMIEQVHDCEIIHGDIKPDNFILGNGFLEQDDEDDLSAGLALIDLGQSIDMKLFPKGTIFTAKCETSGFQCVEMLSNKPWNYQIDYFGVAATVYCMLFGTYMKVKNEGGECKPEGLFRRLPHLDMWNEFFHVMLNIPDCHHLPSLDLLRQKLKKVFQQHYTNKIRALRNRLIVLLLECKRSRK
Ribosomal protein S6 kinase alpha-5 (Homo sapiens), sequence (O75582 whole entry, looked up): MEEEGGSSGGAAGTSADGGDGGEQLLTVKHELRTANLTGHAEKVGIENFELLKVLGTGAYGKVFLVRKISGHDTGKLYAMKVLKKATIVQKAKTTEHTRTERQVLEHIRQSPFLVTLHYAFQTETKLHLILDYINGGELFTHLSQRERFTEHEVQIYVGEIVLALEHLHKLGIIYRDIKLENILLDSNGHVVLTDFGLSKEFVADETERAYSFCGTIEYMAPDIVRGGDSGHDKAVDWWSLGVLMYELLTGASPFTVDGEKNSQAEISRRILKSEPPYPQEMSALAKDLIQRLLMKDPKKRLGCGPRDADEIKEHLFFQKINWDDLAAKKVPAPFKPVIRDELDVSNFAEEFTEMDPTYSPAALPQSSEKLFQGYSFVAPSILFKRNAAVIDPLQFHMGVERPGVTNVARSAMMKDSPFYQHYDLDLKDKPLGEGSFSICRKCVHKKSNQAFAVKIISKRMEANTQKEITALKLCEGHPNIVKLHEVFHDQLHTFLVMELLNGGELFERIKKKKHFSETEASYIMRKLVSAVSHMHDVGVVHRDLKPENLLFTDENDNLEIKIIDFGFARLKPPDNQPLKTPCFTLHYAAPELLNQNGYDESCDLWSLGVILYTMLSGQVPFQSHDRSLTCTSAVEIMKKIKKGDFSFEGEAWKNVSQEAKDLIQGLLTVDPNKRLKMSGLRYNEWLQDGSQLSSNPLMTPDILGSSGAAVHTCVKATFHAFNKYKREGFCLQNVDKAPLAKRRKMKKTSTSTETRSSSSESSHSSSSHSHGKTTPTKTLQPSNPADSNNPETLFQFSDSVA
5-hydroxytryptamine receptor 7, sequence (P34969 whole entry): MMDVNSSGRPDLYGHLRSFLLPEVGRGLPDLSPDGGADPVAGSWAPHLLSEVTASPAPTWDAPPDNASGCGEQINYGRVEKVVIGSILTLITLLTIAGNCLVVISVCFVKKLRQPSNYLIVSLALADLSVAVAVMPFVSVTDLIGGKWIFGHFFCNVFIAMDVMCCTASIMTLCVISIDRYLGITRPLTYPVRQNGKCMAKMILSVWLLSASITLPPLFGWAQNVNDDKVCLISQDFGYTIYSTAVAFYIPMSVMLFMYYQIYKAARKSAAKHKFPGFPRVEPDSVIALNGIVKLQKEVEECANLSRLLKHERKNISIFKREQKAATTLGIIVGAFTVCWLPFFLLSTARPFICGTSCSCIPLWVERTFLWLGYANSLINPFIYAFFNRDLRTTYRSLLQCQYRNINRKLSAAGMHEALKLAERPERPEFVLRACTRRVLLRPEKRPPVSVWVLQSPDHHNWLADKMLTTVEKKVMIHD
Receptor tyrosine-protein kinase erbB-2 (Homo sapiens), sequence (P04626 whole entry, canonical isoform): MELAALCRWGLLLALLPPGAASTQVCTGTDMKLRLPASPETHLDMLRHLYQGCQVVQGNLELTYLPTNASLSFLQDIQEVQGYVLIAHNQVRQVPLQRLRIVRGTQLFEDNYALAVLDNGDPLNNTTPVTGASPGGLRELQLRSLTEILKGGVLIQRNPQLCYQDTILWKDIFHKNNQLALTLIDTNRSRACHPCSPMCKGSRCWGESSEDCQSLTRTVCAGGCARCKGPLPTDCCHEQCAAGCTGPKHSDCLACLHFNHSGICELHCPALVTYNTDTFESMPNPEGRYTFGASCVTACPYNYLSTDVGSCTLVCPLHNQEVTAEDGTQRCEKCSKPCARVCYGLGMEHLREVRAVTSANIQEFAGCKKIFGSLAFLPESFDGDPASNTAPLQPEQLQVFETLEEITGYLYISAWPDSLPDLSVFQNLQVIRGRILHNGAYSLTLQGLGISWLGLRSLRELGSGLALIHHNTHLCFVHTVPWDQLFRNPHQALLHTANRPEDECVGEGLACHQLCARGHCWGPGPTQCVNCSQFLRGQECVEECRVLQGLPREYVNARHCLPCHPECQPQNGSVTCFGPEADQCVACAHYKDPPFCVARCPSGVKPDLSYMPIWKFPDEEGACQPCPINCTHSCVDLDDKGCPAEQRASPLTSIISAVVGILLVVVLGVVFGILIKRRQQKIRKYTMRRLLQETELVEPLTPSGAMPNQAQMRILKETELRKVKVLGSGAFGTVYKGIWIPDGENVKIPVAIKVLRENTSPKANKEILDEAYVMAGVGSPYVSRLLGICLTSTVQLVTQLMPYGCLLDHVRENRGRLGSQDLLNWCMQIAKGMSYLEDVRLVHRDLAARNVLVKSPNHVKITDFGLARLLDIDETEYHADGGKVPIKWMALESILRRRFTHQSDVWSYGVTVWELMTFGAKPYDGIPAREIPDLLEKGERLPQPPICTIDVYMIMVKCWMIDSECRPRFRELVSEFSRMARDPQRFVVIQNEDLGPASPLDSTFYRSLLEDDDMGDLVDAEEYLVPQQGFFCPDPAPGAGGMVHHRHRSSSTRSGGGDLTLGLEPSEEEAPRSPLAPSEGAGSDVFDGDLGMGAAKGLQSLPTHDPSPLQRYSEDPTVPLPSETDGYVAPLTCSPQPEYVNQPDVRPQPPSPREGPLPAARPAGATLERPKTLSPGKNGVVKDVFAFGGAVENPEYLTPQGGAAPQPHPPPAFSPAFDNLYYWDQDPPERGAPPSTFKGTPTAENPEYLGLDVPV
Muscarinic acetylcholine receptor M4 (Homo sapiens), sequence (P08173 whole entry): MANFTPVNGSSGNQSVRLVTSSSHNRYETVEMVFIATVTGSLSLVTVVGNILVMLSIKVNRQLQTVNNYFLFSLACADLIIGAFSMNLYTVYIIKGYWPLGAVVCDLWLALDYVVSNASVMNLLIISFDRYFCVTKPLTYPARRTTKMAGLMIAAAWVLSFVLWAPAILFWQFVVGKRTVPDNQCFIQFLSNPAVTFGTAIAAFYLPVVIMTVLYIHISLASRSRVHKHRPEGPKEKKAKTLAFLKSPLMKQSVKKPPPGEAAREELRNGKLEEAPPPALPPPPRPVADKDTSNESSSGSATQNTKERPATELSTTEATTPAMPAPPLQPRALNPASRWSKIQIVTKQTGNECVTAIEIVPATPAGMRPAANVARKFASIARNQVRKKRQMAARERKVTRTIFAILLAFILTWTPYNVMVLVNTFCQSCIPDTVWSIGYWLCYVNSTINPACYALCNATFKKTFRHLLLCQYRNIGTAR
Ribosomal protein S6 kinase alpha-3 (Homo sapiens), sequence (P51812 whole entry): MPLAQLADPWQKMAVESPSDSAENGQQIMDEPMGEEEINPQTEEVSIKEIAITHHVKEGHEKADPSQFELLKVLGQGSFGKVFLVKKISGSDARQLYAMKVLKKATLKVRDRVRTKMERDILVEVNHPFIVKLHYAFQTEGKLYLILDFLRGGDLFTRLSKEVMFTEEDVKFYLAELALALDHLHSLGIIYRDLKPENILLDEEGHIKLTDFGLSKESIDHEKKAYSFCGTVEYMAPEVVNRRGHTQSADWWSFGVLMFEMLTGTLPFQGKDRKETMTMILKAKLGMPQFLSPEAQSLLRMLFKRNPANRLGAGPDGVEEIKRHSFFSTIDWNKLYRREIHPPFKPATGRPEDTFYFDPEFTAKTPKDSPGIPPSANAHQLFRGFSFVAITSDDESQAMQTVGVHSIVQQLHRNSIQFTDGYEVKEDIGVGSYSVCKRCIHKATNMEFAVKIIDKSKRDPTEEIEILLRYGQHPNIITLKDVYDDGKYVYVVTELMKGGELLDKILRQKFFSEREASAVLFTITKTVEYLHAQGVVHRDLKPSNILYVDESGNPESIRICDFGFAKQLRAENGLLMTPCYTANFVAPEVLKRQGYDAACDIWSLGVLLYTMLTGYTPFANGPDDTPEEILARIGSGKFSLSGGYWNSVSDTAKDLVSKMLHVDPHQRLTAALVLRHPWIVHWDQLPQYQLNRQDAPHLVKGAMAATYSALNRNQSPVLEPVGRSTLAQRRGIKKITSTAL

COc1cnccc1Nc1nc(-c2nn(Cc3c(F)cc(OCCO)cc3F)c3ccccc23)ncc1OC
inhibition [1]: 21% | residual activity [2]: 78% | inhibition [3]: 8% | IC50 [4]: 1900 nM (not active) | residual activity [5]: 100% | residual activity [6]: 80% | inhibition [7]: 3.66% | residual activity [8]: 100% | residual activity [9]: 96% | Ki [10]: > 10000 nM | pKi [10]: < 5 | residual activity [11]: 100% | residual activity [12]: 100% | residual activity [13]: 100% | residual activity [14]: 100% | inhibition [15]: -6% | residual activity [16]: 100% | Cell Proliferation IC50 [17]: 1100 nM | residual activity [18]: 100% | residual activity [19]: 98% | residual activity [20]: 98% | residual activity [21]: 78% | residual activity [22]: 95% | residual activity [23]: 100% | residual activity [24]: 78% | residual activity [25]: 79% | residual activity [26]: 100% | residual activity [27]: 78% | residual activity [28]: 77% | residual activity [29]: 100% | inhibition [30]: 26% | inhibition [31]: 7.49% | residual activity [32]: 100% | residual activity [33]: 94% | residual activity [34]: 92% | inhibition [35]: 9.3% | inhibition [36]: 2% | residual activity [37]: 93% | residual activity [38]: 87% | residual activity [39]: 100% | Kd [40]: 2.1 nM (active) | residual activity [41]: 99% | inhibition [42]: -6.97% | residual activity [43]: 88%
